Assay results taken from US8618285B2, “Triazole derivatives” (Merck Patent GmbH, priority 2005, dated 2013).

Molecular target: T1, Recombinant human HSP90α (Homo sapiens, UniProt P07900)
T1 construct: host or cells: E. coli
Assay: radioligand filter binding test, competitive inhibition of [3H]17AAG binding to HSP90
Conditions: [3H]17AAG 0.08 μM, HSP90 1.5 μg/assay, 22° C., 30 min
From the text: The binding of geldanamycin or 17-allylamino-17-demethoxygeldanamycin (17AAG) to HSP90 and competitive inhibition thereof can be utilised in order to determine the inhibitory activity of the compounds according to the invention (Carreras et al. 2003, Chiosis et al. 2002).
In the specific case, a radioligand filter binding test is used. The radio-ligand used here is tritium-labelled 17-allylaminogeldanamycin, [3H]17AAG. This filter binding test allows a targeted search for inhibitors which interfere with the ATP binding site. Material
Recombinant human HSP90α (E. coli expressed, 95% purity); [3H]17AAG (17-allylaminogeldanamycin, [allylamino-2,3-^3H. Specific activity: 1.11×10^12 Bq/mmol (Moravek, MT-1717);
HEPES filter buffer (50 mM HEPES, pH 7.0, 5 mM MgCl2, BSA 0.01%) Multiscreen FB (1 μm) filter plate (Millipore, MAFBNOB 50).
The 96-well microtitre filter plates are firstly irrigated and coated with 0.1% of polyethylenimine.
The test is carried out under the following conditions: • Reaction temperature 22° C. • Reaction time: 30 min., shaking at 800 rpm • Test volume: 50 μl • Final concentrations: • 50 mM HEPES HCl, pH 7.0, 5 mM MgCl2, 0.01% (w/v) BSA • HSP90: 1.5 μg/assay • [3H]17AAG: 0.08 μM.
At the end of the reaction, the supernatant in the filter plate is removed by suction with the aid of a vacuum manifold (Multiscreen Separation System, Millipore), and the filter is washed twice.
The filter plates are then measured in a beta counter (Microbeta, Wallac) with scintillator (Microscint 20, Packard).
“% of control” is determined from the “counts per minutes” values and the IC50 value of a compound is calculated therefrom.

Compound	IC50
CCCCN(C)S(=O)(=O)c1cc(-c2nnc(O)n2-c2ccccc2Cl)c(O)cc1O [A26, 5-[2,4-dihydroxy-5-(N-butyl-N-methylsulfamoyl)phenyl]-4-(2-chloro-phenyl)-3-hydroxy-4H-1,2,4-triazole]	120 nM
CCCN(C)S(=O)(=O)c1cc(-c2nnc(O)n2-c2ccccc2Cl)c(O)cc1O [A28, 5-[2,4-dihydroxy-5-(N-propyl-N-methylsulfamoyl)phenyl]-4-(2-chloro-phenyl)-3-hydroxy-4H-1,2,4-triazole]	160 nM
CN(Cc1ccccc1)S(=O)(=O)c1cc(-c2nnc(O)n2-c2ccccc2Cl)c(O)cc1O [A32, 5-[2,4-dihydroxy-5-(N-benzyl-N-methylsulfamoyl)phenyl]-4-(2-chloro-phenyl)-3-hydroxy-4H-1,2,4-triazole]	140 nM
CCCN(C)S(=O)(=O)c1cc(-c2nnc(O)n2-c2ccccc2CC)c(O)cc1O [A34, 5-[2,4-dihydroxy-5-(N-propyl-N-methylsulfamoyl)phenyl]-4-(2-ethyl-phenyl)-3-hydroxy-4H-1,2,4-triazole]	80 nM
CCCN(C)S(=O)(=O)c1cc(-c2nnc(O)n2-c2cccc(Cl)c2)c(O)cc1O [A38, 5-[2,4-dihydroxy-5-(N-propyl-N-methylsulfamoyl)phenyl]-4-(3-chloro-phenyl)-3-hydroxy-4H-1,2,4-triazole]	330 nM
CCCN(C)S(=O)(=O)c1cc(-c2nnc(O)n2-c2cccc(F)c2)c(O)cc1O [A39, 5-[2,4-dihydroxy-5-(N-propyl-N-methylsulfamoyl)phenyl]-4-(3-fluoro-phenyl)-3-hydroxy-4H-1,2,4-triazole]	180 nM
CCCN(C)S(=O)(=O)c1cc(-c2nnc(O)n2-c2ccccc2C)c(O)cc1O [A40, 5-[2,4-dihydroxy-5-(N-propyl-N-methylsulfamoyl)phenyl]-4-(2-methyl-phenyl)-3-hydroxy-4H-1,2,4-triazole]	140 nM
